Assay results taken from patent US20250011330A1, “Imidazo[1,2- a]pyrazine and Imidazo[1,2- a]pyridine Based Tyrosyl-DNA Phosphodiesterase I (TDP1) Inhibitors” (The USA, As Represented by the Secretary, Department of …, priority 2021, published 2025).
Read-outs that look alike come from different tables or passages of the source. Values belong to the molecule of their own block, whether it stands above or below them.

Legend:
[1] = biological target: T1, TDP2 (Homo sapiens (Human), UniProt O95551); assay: gel-based TDP2 fluorescence assay in vitro; type: biochemical; conditions: for IC50: read-out: TDP2 IC50; for inhibition of TDP2, primary screen: 111 μM, preincubation with TDP2 at room temperature overnight
T1 sequence (O95551 whole entry, species assumed): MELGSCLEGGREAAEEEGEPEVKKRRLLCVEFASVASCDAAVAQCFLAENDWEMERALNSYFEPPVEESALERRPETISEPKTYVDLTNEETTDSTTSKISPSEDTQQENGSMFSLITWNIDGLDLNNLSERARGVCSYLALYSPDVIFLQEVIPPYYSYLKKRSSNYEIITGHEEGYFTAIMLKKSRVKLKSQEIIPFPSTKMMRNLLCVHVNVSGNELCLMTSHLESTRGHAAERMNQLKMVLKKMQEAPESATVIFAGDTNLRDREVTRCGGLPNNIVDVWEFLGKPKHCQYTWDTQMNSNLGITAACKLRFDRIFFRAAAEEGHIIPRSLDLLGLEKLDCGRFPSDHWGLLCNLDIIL

[2] = biological target: T1, TDP2; assay: TDP2 degrading activity as stated in the description; conditions: list in description
[3] = system: human colon cancer cell line HCT116; assay: Synergistic effect with camptothecin (CPT) based on cell viability; conditions: for synergy with camptothecin: list in description; for Synergy Score: with camptothecin (CPT), HCT116, 72 h, SynergyFinder 2.0
Method: The synergistic effects of the TDP1 inhibitors with CPT were tested in human colon cancer cell line HCT116 based on cell viability (Table 3, FIGS. 2-5). Cells were first seeded in a 384-well black-clear plate until 30% confluency and then incubated with a serial dilution of CPT at the range of 0-100 nM in the present or the absence of TDP1 inhibitors for 72 h at 37° C. Viable cell numbers were counted from the brightfield images taken by Biotek Cytation 5 (FIGS. 2-3). Fractional affect (Fa) and combination index (Ci) were analyzed with CompuSyn software. Synergistic scores of each TDP1 inhibitors were calculated and collected based on the data analysis from SynergyFinder (FIG. 4). […]

[4] = biological target: T2, TDP1 (Homo sapiens (Human), UniProt Q9NUW8); assay: TDP1 gel-based in vitro fluorescence assay; type: biochemical
T2 sequence (Q9NUW8 whole entry): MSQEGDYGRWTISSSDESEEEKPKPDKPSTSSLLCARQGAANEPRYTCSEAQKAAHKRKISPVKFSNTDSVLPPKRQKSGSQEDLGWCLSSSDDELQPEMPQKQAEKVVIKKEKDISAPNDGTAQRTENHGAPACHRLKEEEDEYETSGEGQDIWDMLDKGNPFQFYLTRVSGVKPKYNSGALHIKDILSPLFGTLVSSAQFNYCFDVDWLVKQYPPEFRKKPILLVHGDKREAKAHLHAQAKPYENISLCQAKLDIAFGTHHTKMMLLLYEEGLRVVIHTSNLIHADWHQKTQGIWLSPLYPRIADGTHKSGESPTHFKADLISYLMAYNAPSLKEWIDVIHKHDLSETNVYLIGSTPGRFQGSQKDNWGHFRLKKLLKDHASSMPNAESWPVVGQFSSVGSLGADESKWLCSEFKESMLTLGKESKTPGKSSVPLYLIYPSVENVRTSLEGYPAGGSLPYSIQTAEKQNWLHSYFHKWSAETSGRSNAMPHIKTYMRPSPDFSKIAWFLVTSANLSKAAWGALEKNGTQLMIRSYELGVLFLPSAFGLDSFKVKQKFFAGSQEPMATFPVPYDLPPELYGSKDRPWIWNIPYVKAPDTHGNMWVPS

[5] = biological target: T2, TDP1; assay: Degradation assay (western blotting) of TDP1 in HCT116 and HEK293 cells; type: cell-based; conditions: for TDP1 degradation in cells: 200 uM concentration; for TDP1 degrading activity: list in description
Method: The degradation effect of the TDP1 inhibitors on TDP1 in human colon cancer cell line HCT116 and embryonic kidney cell line HEK293 were studied. Cells were first seeded in a 6-well plate until 60-80% confluency and then incubated with a serial dilution of TDP1 inhibitors at the range of 25-200 μM for 24-72 h at 37° C. […] Samples were then sonicated at 30% for 10 s and centrifuged for 15 min at 15000 rpm at 4 Celsius. Supernatant were collected and the concentration of total protein were measured by BCA Protein Assay Kit according to its protocols. Four micrograms of total protein for each sample were loaded and TDP1 level were conducted by western blotting.

[6] = Table 8, lead compounds with different linkers
[7] = Table 1, imidazo[1,2-a]pyridin-3-amines, read-out: IC50
[8] = Table 7, HPLC-purified oxime leads
[9] = Table 7, ratio of IC50 TDP2 to TDP1
[10] = Table 8, lead compounds with different linkers, read-out: TDP1 IC50
[11] = Table 9, fluorosulfates and sulfonyl fluorides
[12] = Table 9, fluorosulfates and sulfonyl fluorides, read-out: TDP1 IC50
[13] = Table 10, PROTACs, read-out: TDP1 IC50

Molecule: 4-((2-(4-(2-((4-(5-((λ^2-Azaneylidene)-λ^3-methyl)pyridin-2-yl)phenyl)methoxy)ethyl)phenyl)imidazo[1,2-a]pyridin-3-yl)amino)benzoic acid [XZ727]
IC50 [1, 6]: 70.5 ± 13.5 µM
TDP2 degrading activity [2]: exhibit TDP2 degrading activity

Molecule: CS(=O)(=O)c1ccc2nc(-c3ccccc3)c(Nc3ccc([N+](=O)[O-])cc3)n2c1 [Compound 6u, 6-(Methylsulfonyl)-N-(4-nitrophenyl)-2-phenylimidazo[1,2-a]pyridin-3-amine]
synergy with camptothecin [3]: exhibit synergy with camptothecin
IC50 [4, 7]: 16.1 µM

IC50 ([1]; Table 3): > 100 µM
Molecule: O=C(O)c1ccc(Nc2c(-c3ccccc3)nc3cnccn23)cc1 [Compound 7b, 4-((2-Phenylimidazo[1,2-a]pyrazin-3-yl)amino)benzoic acid]
Synergy Score [3]: 3

IC50 ([1]; Table 3): > 100 µM
Molecule: O=C(O)c1ccc(Nc2c(-c3ccccc3)nc3ccccn23)cc1 [Compound 8a, 4-((2-Phenylimidazo[1,2-a]pyridin-3-yl)amino)benzoic acid]
Synergy Score [3]: −1.3

Molecule: O=C(O)c1ccc(Nc2c(-c3ccccc3)nc3ccc(C(=O)O)cn23)cc1 [Compound 8m, 3-((4-Carboxyphenyl)amino)-2-phenylimidazo[1,2-a]pyridine-6-carboxylic acid]
synergy with camptothecin [3]: exhibit synergy with camptothecin
IC50 [4, 7]: 0.9 µM

Molecule: O=C(O)c1ccc(Nc2c(-c3ccccc3)nc3ccc(Br)cn23)cc1 [Compound 8o, 4-((6-Bromo-2-phenylimidazo[1,2-a]pyridin-3-yl)amino)benzoic acid]
synergy with camptothecin [3]: exhibit synergy with camptothecin
IC50 [4, 7]: 1.6 µM

Molecule: CS(=O)(=O)c1ccc2nc(-c3ccccc3)c(Nc3ccc(C(=O)O)cc3)n2c1 [Compound 8q, 4-((6-(Methylsulfonyl)-2-phenylimidazo[1,2-a]pyridin-3-yl)amino)benzoic acid]
Synergy Score [3]: 9.5
TDP1 Selectivity ([4]; ratio of IC50 values of TDP1/TDP2): 26

IC50 ([1]; Table 3): > 100 µM
Molecule: O=C(O)c1ccc(Nc2c(-c3ccccc3)nc3cc(C(=O)O)ccn23)cc1 [Compound 8s, 3-((4-Carboxyphenyl)amino)-2-phenylimidazo[1,2-a]pyridine-7-carboxylic acid]
synergy with camptothecin [3]: exhibit synergy with camptothecin
Synergy Score [3]: 20.7

IC50 ([1]; Table 3): > 100 µM
Molecule: O=C(O)c1ccc(Nc2c(-c3ccccc3)nc3ccccn23)cc1C(=O)O [Compound 10b, 4-((2-Phenylimidazo[1,2-a]pyridin-3-yl)amino)phthalic acid]
synergy with camptothecin [3]: exhibit synergy with camptothecin
Synergy Score [3]: 17.9

Molecule: O=C(O)c1ccc(Nc2c(-c3ccccc3O)nc3cnccn23)cc1 [Compound M7]
synergy with camptothecin [3]: exhibit synergy with camptothecin
Synergy Score [3]: 15.6

TDP1 degradation in cells [5]: does not
TDP1 degrading activity [5]: exhibit TDP1 degrading activity
IC50 [1, 8]: > 100 µM
IC50 [1, 6]: > 100 µM
Molecule: O=C(O)c1ccc(Nc2c(-c3ccccc3)nc3ccccn23)cc1 [XZ615]

TDP1 degradation in cells [5]: shows TDP1 degradation
TDP1 degrading activity [5]: exhibit TDP1 degrading activity
IC50 ([1]; Table 3): > 100 µM
IC50 [1, 8]: > 100 µM
IC50 [1, 6]: > 100 µM
Molecule: O=C(O)c1ccc(Nc2c(-c3ccccc3)nc3cc(-c4ccccc4)ccn23)cc1 [XZ664, 4-((2,7-Diphenylimidazo[1,2-a]pyridin-3-yl)amino)benzoic acid]
Synergy Score [3]: 9.1

IC50 [1, 8]: 10.9 ± 1.1 µM
IC50 ([1]; purified oximes): ~10 µM
TDP2 degrading activity [2]: exhibit TDP2 degrading activity
FC (fold change) [4, 9]: 1
IC50 ([4]; purified oximes and SMM leads, read-out: TDP1 IC50): ~10 µM
Molecule: O=C(O)c1ccc(Nc2c(-c3ccc(CO/N=C/c4ccc(N5CCCC5=O)cc4)cc3)nc3cc(-c4ccccc4)ccn23)cc1 [XZ703, (E)-4-((2-(4-((((4-(2-Oxopyrrolidin-1-yl)benzylidene)amino)oxy)methyl)phenyl)-7-phenylimidazo[1,2-a]pyridin-3-yl)amino)benzoic acid]

Molecule: N#Cc1ccc(-c2ccc(/C=N/OCc3ccc4nc(-c5ccccc5)c(Nc5ccc(C(=O)O)cc5)n4c3)cc2)nc1 [XZ706, (E)-4-((6-((((4-(5-cyanopyridin-2-yl)benzylidene)amino)oxy)methyl)-2-phenylimidazo[1,2-a]pyridin-3-yl)amino)benzoic acid]
IC50 [1, 8]: 62.1 ± 10.1 µM
synergy with camptothecin [3]: exhibit synergy with camptothecin
IC50 ([4]; Table 7, HPLC-purified oxime leads, read-out: TDP1 IC50): 17.4 ± 3.2 µM
FC (fold change) [4, 9]: 4
loss of TDP1 potency relative to 102 ([4]; fold loss versus 102): about 2 fold

Molecule: N#Cc1ccc(-c2ccc(/C=N\OCc3ccc(-c4nc5cc(-c6ccccc6)ccn5c4Nc4ccc(C(=O)O)cc4)cc3)cc2)nc1 [XZ708, (Z)-4-((2-(4-((((4-(5-Cyanopyridin-2-yl)benzylidene)amino)oxy)methyl)phenyl)-7-phenylimidazo[1,2-a]pyridin-3-yl)amino)benzoic acid]
IC50 [1, 8]: > 100 µM
synergy with camptothecin [3]: exhibit synergy with camptothecin
FC (fold change) [4, 9]: >18

Molecule: N#Cc1ccc(-c2ccc(Cn3cc(-c4ccc5nc(-c6ccccc6)c(Nc6ccc(C(=O)O)cc6)n5c4)nn3)cc2)nc1 [XZ723, 4-((6-(1-(4-(5-Cyanopyridin-2-yl)benzyl)-1H-1,2,3-triazol-4-yl)-2-phenylimidazo[1,2-a]pyridin-3-yl)amino)benzoic acid]
IC50 [1, 6]: 69.1 ± 11.8 µM
TDP2 degrading activity [2]: exhibit TDP2 degrading activity
IC50 [4, 10]: 66.4 ± 3.7 µM
FC (fold change) ([4]; Table 8, ratio of IC50 TDP2 to TDP1): 1

TDP1 degrading activity [5]: exhibit TDP1 degrading activity
IC50 [1, 6]: > 100 µM
IC50 [4, 10]: > 100 µM
Molecule: N#Cc1ccc(-c2ccc(CO/N=C/c3ccc(-c4nc5ccccn5c4Nc4ccc(C(=O)O)cc4)cc3)cc2)nc1 [XZ724]

TDP1 degrading activity [5]: exhibit TDP1 degrading activity
IC50 [1, 6]: > 100 µM
IC50 [4, 10]: 25.6 ± 4.05 µM
Molecule: N#Cc1ccc(-c2ccc(CO/N=C/c3ccc(-c4nc5cc(-c6ccccc6)ccn5c4Nc4ccc(C(=O)O)cc4)cc3)cc2)nc1 [XZ725]
synergy with camptothecin [3]: exhibit synergy with camptothecin

Molecule: O=C(O)c1ccc(N(c2c(-c3ccccc3OS(=O)(=O)F)nc3cc(-c4ccccc4)ccn23)S(=O)(=O)F)cc1 [XZ731, 4-((Fluorosulfonyl)(2-(2-((fluorosulfonyl)oxy)phenyl)-7-phenylimidazo[1,2-a]pyridin-3-yl)amino)benzoic acid]
inhibition of TDP2, primary screen [1]: inhibition
IC50 [1, 11]: 45.5 µM
TDP2 degrading activity [2]: exhibit TDP2 degrading activity
inhibition of TDP1, primary screen ([4]; 111 μM, preincubation with TDP1 at room temperature overnight): inhibition
IC50 [4, 12]: 22.7 µM
selectivity compared with TDP2, secondary screen ([4]; preincubation overnight at room temperature): 2 fold
inhibition, secondary screen ([4]; preincubation with TDP overnight at room temperature): μM inhibition
inhibition of TDP1, secondary screen ([4]; room temperature, preincubation 10 minutes): no inhibition

Molecule: O=C(O)c1ccc(Nc2c(-c3ccccc3)nc3ccc(OS(=O)(=O)F)cn23)cc1 [XZ732, 4-((6-((Fluorosulfonyl)oxy)-2-phenylimidazo[1,2-a]pyridin-3-VA)amino)benzoic acid]
inhibition of TDP2, primary screen [1]: inhibition
IC50 [1, 11]: 65.8 µM
TDP2 degrading activity [2]: exhibit TDP2 degrading activity
IC50 [4, 12]: > 100 µM

Molecule: O=S(=O)(F)c1ccc(Nc2c(-c3ccccc3)nc3ccccn23)cc1 [XZ734, 4-((2-Phenylimidazo[1,2-a]pyridin-3-yl)amino)benzenesulfonyl fluoride]
TDP1 degradation by covalent inhibitors ([5]; FIG. 39): degrade TDP1
TDP1 degrading activity [5]: exhibit TDP1 degrading activity
IC50 [1, 11]: > 100 µM
IC50 [4, 12]: > 100 µM

IC50 ([1]; Table 10, PROTACs): > 100 µM
IC50 [4, 13]: > 100 µM
Molecule: O=C1CCC(N2C(=O)c3cccc(OCCOCCOCc4cn(Cc5ccc(-c6nc7cc(-c8ccccc8)ccn7c6Nc6ccc(C(=O)O)cc6)cc5)nn4)c3C2=O)C(=O)N1 (stereo not shown) [XZ743, 4-((2-(4-((4-((2-(2-((2-(2,6-Dioxopiperidin-3-yl)-1,3-dioxoisoindolin-4-yl)oxy)ethoxy)ethoxy)methyl)-1H-1,2,3-triazol-1-yl)methyl)phenyl)-7-phenylimidazo[1,2-a]pyridin-3-yl)amino)benzoic acid]

Molecule: O=C1CCC(N2C(=O)c3cccc(NCCc4cn(Cc5ccc(-c6nc7cc(-c8ccccc8)ccn7c6Nc6ccc(C(=O)O)cc6)cc5)nn4)c3C2=O)C(=O)N1 (stereo not shown) [XZ749, 4-((2-(4-((4-(2-((2-(2,6-Dioxopiperidin-3-yl)-1,3-dioxoisoindolin-4-yl)amino)ethyl)-1H-1,2,3-triazol-1-yl)methyl)phenyl)-7-phenylimidazo[1,2-a]pyridin-3-V)amino)benzoic acid]
IC50 ([1]; Table 10, PROTACs): 16.8 ± 0.3 µM
IC50 [4, 13]: 12.3 ± 1.5 µM
